{
  "source": "ChEMBL document CHEMBL5465560",
  "about": "“Selectivity Literature for EUbOPEN Chemogenomic Library” (2024)",
  "key": {"[1]": {"molecular_target": "Calcium/calmodulin-dependent protein kinase kinase 1 (Homo sapiens) (UniProt Q8N5S9)", "sequence (Q8N5S9 whole entry, looked up)": "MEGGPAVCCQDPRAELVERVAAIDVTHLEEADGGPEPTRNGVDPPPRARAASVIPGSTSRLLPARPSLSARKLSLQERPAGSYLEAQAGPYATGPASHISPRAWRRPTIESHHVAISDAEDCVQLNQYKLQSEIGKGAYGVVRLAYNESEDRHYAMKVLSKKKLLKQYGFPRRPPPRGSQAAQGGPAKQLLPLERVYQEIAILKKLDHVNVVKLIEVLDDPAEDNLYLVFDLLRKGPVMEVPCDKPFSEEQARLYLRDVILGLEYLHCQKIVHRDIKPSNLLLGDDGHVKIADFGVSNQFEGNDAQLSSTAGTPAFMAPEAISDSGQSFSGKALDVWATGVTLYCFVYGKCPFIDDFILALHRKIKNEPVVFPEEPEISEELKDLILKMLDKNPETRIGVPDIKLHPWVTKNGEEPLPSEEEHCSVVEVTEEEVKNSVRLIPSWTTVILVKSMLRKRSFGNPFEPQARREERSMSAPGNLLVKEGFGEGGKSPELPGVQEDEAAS", "assay": "Selectivity interaction (KinomeScan (DiscoverX)) EUB0001049a CAMKK1", "settings": "at 1 µM"}, "[2]": {"molecular_target": "Microtubule-associated serine/threonine-protein kinase 1 (Homo sapiens) (UniProt Q9Y2H9)", "sequence (Q9Y2H9 whole entry, looked up)": "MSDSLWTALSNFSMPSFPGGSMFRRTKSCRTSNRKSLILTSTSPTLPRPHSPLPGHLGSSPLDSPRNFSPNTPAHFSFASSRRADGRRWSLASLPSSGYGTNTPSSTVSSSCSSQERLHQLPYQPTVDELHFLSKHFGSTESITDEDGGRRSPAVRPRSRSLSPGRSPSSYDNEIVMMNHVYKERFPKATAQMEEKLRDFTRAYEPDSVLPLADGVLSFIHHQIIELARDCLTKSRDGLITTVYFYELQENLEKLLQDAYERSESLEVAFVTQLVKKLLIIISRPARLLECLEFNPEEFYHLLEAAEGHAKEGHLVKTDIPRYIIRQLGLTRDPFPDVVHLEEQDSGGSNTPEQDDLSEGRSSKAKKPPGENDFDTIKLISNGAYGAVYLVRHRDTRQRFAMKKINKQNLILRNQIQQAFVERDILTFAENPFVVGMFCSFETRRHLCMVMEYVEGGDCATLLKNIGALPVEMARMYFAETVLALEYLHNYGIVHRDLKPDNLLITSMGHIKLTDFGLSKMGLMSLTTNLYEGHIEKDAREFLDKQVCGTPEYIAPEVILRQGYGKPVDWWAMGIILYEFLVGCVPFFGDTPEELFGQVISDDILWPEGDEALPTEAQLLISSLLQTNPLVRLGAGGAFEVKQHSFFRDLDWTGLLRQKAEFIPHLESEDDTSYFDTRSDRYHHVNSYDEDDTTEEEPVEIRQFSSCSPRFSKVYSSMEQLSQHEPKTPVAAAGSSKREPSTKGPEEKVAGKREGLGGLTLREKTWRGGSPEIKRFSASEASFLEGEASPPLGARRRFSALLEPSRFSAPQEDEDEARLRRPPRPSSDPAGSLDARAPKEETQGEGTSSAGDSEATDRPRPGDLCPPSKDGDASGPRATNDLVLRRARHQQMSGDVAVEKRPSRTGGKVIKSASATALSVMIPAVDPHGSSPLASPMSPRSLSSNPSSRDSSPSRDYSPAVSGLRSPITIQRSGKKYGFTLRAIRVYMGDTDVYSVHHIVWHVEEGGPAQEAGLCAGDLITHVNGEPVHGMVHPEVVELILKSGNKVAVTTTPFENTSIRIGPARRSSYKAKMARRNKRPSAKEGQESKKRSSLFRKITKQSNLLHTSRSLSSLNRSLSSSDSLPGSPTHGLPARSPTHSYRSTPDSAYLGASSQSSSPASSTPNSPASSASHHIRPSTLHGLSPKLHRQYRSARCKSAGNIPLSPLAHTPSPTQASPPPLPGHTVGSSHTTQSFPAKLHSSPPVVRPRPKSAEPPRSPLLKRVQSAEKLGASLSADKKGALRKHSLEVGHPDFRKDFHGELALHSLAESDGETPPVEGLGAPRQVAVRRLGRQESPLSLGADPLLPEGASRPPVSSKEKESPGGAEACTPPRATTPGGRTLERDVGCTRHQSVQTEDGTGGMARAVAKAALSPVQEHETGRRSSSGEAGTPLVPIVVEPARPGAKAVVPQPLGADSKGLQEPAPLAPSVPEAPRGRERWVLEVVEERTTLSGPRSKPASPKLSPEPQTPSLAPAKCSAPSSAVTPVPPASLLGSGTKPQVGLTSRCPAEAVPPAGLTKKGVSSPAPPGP", "assay": "Selectivity interaction (KinomeScan (DiscoverX)) EUB0001049a MAST1", "settings": "at 1 µM"}, "[3]": {"molecular_target": "T1, MAP/microtubule affinity-regulating kinase 4 (Homo sapiens) (UniProt Q96L34)", "T1 sequence (whole entry)": "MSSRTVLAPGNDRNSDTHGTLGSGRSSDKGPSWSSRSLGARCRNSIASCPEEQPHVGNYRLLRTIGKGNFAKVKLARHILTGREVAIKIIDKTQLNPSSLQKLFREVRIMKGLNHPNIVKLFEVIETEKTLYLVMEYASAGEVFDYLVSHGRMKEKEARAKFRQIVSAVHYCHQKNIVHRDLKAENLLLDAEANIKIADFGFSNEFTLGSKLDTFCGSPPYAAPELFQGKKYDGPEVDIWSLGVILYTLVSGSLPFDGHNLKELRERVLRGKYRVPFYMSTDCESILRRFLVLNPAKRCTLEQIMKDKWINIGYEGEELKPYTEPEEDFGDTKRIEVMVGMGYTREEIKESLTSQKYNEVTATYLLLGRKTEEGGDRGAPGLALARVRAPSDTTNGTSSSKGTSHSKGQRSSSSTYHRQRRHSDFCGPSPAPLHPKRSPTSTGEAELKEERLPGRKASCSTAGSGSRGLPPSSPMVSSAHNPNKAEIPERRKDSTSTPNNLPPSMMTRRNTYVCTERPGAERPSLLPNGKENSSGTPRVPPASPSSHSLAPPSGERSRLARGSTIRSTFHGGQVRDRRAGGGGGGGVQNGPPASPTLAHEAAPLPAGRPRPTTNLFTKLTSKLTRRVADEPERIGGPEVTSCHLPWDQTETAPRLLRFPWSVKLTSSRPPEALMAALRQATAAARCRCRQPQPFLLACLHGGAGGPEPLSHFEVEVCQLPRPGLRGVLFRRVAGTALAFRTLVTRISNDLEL", "assay": "Selectivity interaction (KinomeScan (DiscoverX)) EUB0000229b MARK4", "settings": "at 10 µM"}, "[4]": {"molecular_target": "Ribosomal protein S6 kinase alpha-5 (Homo sapiens) (UniProt O75582)", "assay": "Selectivity interaction (Kinase panel (DSF assay)) EUB0001558a RPS6KA5"}, "[5]": {"molecular_target": "T2, Serine/threonine-protein kinase ULK1 (Homo sapiens) (UniProt O75385)", "T2 sequence (whole entry)": "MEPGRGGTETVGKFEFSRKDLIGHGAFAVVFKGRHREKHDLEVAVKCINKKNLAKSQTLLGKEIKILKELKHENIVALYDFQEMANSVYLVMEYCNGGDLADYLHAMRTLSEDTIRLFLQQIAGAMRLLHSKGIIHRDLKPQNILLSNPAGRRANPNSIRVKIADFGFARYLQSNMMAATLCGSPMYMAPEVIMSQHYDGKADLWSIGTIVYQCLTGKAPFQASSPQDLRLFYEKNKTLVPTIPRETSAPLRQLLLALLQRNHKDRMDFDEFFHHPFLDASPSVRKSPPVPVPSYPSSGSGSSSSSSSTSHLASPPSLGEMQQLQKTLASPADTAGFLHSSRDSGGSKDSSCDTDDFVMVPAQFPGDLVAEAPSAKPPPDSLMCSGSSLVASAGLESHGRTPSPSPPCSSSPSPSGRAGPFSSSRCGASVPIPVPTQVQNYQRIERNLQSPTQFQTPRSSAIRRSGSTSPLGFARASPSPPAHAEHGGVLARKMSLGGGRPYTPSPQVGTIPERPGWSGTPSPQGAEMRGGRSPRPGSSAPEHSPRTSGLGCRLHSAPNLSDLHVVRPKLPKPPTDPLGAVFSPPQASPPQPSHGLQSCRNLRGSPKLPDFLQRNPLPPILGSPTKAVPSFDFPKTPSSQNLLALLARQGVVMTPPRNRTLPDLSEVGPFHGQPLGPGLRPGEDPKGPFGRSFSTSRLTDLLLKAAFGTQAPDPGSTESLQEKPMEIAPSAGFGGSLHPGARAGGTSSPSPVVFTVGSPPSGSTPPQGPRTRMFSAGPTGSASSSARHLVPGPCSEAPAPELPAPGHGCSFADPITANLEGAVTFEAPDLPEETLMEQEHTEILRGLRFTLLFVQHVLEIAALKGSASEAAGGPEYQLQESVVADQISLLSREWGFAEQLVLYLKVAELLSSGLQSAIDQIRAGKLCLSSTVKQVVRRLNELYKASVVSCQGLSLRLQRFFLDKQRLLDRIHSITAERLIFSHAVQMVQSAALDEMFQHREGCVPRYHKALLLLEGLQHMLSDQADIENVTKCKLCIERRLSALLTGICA", "assay": "Selectivity interaction (Kinase panel (DSF assay)) EUB0001558a ULK1"}, "[6]": {"molecular_target": "Nucleosome-remodeling factor subunit BPTF (Homo sapiens, UniProt Q12830)", "assay": "Selectivity interaction (Human bromodomain panel (DSF assay)) EUB0000233b BPTF"}, "[7]": {"system": "Tyrosine-protein kinase ABL1 (Homo sapiens), P00519 [Y253F]", "settings": "at 10 µM"}, "[8]": {"molecular_target": "Serine/threonine-protein kinase PAK 1 (Homo sapiens) (UniProt Q13153)", "sequence (Q13153 whole entry)": "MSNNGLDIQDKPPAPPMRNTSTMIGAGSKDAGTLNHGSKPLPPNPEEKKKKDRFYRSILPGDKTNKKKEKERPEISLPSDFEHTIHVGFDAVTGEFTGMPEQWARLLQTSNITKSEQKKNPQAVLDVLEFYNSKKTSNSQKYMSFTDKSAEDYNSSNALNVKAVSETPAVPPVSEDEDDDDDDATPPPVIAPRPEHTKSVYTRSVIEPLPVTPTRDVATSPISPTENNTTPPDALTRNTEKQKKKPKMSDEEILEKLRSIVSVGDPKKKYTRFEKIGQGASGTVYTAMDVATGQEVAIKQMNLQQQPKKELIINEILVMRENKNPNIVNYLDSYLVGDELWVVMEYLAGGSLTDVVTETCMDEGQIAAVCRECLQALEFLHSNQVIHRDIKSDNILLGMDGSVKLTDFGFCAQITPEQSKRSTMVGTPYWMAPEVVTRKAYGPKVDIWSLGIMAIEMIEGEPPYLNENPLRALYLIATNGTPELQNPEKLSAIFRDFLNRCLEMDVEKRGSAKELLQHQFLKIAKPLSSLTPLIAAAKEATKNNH", "assay": "Selectivity interaction (Kinase screening (Nanosyn)) EUB0000604a PAK1"}, "[9]": {"molecular_target": "Calcium/calmodulin-dependent protein kinase type II subunit gamma (Homo sapiens) (UniProt Q13555)", "sequence (Q13555 whole entry)": "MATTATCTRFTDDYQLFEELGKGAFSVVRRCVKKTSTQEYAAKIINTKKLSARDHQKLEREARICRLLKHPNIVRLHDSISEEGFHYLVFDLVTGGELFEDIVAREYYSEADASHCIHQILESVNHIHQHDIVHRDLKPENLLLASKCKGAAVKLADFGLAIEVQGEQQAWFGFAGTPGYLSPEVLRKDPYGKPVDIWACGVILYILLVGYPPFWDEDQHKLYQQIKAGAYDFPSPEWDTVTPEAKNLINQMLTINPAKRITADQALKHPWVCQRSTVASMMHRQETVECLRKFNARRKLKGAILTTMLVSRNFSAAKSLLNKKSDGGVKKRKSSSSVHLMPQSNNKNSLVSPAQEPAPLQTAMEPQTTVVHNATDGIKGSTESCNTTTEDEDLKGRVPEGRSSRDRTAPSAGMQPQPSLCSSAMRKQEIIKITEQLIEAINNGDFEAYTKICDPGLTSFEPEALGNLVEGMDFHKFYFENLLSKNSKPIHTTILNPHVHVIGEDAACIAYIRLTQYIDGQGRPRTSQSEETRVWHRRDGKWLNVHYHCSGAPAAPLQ", "assay": "Selectivity interaction (Ambit KINOMEscan and KiNATiv profiling in Jurkat cells) EUB0000090b CAMK2G", "type": "cell-based", "settings": "at 1 µM"}, "[10]": {"molecular_target": "Cyclin-dependent kinase 18 (Homo sapiens) (UniProt Q07002)", "sequence (Q07002 whole entry)": "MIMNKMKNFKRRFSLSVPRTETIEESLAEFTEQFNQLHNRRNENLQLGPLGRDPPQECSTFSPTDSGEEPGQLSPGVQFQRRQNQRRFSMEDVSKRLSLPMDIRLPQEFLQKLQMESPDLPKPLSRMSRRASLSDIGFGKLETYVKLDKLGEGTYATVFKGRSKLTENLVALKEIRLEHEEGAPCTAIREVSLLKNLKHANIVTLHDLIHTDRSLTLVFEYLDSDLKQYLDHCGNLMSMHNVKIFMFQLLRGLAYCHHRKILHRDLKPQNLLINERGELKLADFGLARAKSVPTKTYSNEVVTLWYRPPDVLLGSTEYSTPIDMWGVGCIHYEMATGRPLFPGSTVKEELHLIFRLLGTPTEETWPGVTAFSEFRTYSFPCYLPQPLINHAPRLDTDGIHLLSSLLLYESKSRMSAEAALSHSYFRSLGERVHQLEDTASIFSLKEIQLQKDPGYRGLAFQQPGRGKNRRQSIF", "assay": "Selectivity interaction (KinomeScan (DiscoverX)) EUB0000045b CDK18"}, "[11]": {"molecular_target": "Calcium/calmodulin-dependent protein kinase kinase 2 (Homo sapiens) (UniProt Q96RR4)", "assay": "Selectivity interaction (KinomeScan (DiscoverX)) EUB0000618a CAMKK2", "settings": "at 10 µM"}, "[12]": {"molecular_target": "Platelet-derived growth factor receptor alpha (Homo sapiens, UniProt P16234)", "assay": "Selectivity interaction (Kinase panel (Enzyme activity assay)) EUB0000612a PDGFRA"}, "[13]": {"molecular_target": "DNA-dependent protein kinase catalytic subunit (Homo sapiens) (UniProt P78527)", "assay": "Selectivity interaction (ActivX KiNativ screen (ex vivo kinase selectivity in human PBMCs)) EUB0001619a PRKDC", "type": "cell-based", "settings": "PBMC, at 1 µM"}, "[14]": {"molecular_target": "CDK6/cyclin D1 (Homo sapiens) (UniProt P24385+Q00534)", "assay": "(§1) Selectivity interaction (Rxn Biology Kinase assay) EUB0001632a CDK6", "type": "protein-complex assay", "settings": "at 10 µM"}, "[15]": {"molecular_target": "CDK6/cyclin D3 (Homo sapiens) (UniProt P30281+Q00534)", "assay": "as §1", "type": "protein-complex assay", "settings": "at 10 µM"}, "[16]": {"molecular_target": "CDK3/Cyclin E (Homo sapiens) (UniProt P24864+Q00526)", "sequence (P24864 whole entry, looked up)": "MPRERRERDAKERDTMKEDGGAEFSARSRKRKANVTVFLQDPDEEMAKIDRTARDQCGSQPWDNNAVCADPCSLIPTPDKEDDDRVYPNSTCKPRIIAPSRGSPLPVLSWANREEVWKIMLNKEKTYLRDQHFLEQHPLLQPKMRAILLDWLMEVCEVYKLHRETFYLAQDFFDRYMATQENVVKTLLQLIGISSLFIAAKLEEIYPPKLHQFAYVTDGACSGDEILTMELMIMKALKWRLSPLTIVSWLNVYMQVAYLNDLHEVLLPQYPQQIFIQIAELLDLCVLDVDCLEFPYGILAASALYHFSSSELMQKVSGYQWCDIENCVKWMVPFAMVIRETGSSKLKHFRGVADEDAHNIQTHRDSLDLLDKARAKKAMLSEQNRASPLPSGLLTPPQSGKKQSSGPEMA", "sequence (Q00526 whole entry, looked up)": "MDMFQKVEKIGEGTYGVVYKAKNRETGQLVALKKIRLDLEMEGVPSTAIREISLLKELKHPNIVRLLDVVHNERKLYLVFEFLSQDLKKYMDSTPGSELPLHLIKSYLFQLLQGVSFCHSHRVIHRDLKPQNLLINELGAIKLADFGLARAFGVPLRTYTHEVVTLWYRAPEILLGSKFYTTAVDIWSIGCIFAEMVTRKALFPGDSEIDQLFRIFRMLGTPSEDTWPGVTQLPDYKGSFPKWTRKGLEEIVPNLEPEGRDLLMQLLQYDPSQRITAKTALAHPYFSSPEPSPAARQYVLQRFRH", "assay": "(§2) Selectivity interaction (ProQinase) EUB0000171b CDK3", "type": "protein-complex assay"}, "[17]": {"molecular_target": "Cyclin-dependent kinase 3/Cyclin-C (Homo sapiens) (UniProt Q00526+P24863)", "sequence (P24863 whole entry, looked up)": "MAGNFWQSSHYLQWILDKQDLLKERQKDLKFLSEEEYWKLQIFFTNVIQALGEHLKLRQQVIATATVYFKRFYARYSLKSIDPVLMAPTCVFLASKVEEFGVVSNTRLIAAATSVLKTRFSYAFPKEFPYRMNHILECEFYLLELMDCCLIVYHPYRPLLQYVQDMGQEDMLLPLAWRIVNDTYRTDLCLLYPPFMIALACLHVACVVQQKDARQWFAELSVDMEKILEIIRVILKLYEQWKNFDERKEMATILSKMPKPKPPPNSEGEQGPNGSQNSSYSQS", "sequence (Q00526 whole entry, looked up)": "as the sequence (Q00526 whole entry, looked up) above", "assay": "as §2", "type": "protein-complex assay"}},
  "data": [
    {"smiles": "COc1cc(Nc2nc(C)cc(-c3cnn4nc(OC)ccc34)n2)cc(C(F)(F)F)c1", "values": [
      {"measurement": "% of control", "setting": "[1]", "value": 95, "unit": "%"},
      {"measurement": "% of control", "setting": "[2]", "value": 100, "unit": "%"}
    ]},
    {"smiles": "COc1cc(N(C)c2ccnc3ccc(C(F)(F)F)cc23)cc(OC)c1OC", "values": [
      {"measurement": "% binding", "setting": "[3]", "value": 87, "unit": "%"}
    ]},
    {"smiles": "CC(C)(O)[C@H](F)CN1Cc2cc(NC(=O)c3cnn4cccnc34)c(N3CCOCC3)cc2C1=O", "values": [
      {"measurement": "dTM", "setting": "[4]", "value": 0.5, "unit": "K"},
      {"measurement": "dTM", "setting": "[5]", "value": 0.5, "unit": "K"}
    ]},
    {"smiles": "CN(C)CCCOc1ccc(-c2cc(NCCCn3cccn3)nc(S(C)(=O)=O)n2)cc1", "values": [
      {"measurement": "dTM", "setting": "[6]", "value": 4, "unit": "K"}
    ]},
    {"smiles": "CCN(CC)CCCCNc1ncc2cc(-c3cc(OC)cc(OC)c3)c(NC(=O)NC(C)(C)C)nc2n1", "values": [
      {"measurement": "% of control", "setting": "[7]", "value": 100, "unit": "%"}
    ]},
    {"smiles": "Cc1cnc(Nc2ccc(F)cc2Cl)nc1-c1c[nH]c(C(=O)N[C@H](CO)c2cccc(Cl)c2)c1", "values": [
      {"measurement": "% of inhibition", "setting": "[8]", "value": 3, "unit": "%"}
    ]},
    {"smiles": "CN(C)C/C=C/C(=O)Nc1ccc(C(=O)N2CCCC(Nc3ncc(Cl)c(-c4c[nH]c5ccccc45)n3)C2)cc1", "note": "(stereo not given)", "values": [
      {"measurement": "% of control", "setting": "[9]", "value": 93, "unit": "%"}
    ]},
    {"smiles": "C=CC(=O)Nc1cc(-n2c(=O)ccc3cnc4ccc(-c5ccc(NS(C)(=O)=O)cc5)cc4c32)ccc1C", "values": [
      {"measurement": "% of control", "setting": "[10]; at 1 µM", "value": 83, "unit": "%"},
      {"measurement": "% of control", "setting": "[10]; at 10 µM", "value": 88, "unit": "%"}
    ]},
    {"smiles": "O[C@H]1CC[C@H](Nc2ncc3nc(Nc4c(F)cc(F)cc4F)n([C@H]4CCOC4)c3n2)CC1", "values": [
      {"measurement": "% of control", "setting": "[11]", "value": 94, "unit": "%"}
    ]},
    {"smiles": "CCc1cccc(CC)c1NC(=O)c1nn(C)c2c1CCc1cnc(Nc3ccc(C(=O)NC4CCN(C)CC4)cc3OC(F)(F)F)nc1-2", "values": [
      {"measurement": "IC50", "setting": "[12]", "value": "> 10", "unit": "µM"}
    ]},
    {"smiles": "N#Cc1cccc(-c2c[nH]c3ncnc(N4CCOCC4)c23)c1", "values": [
      {"measurement": "% of inhibition", "setting": "[13]", "value": -2, "unit": "%"}
    ]},
    {"smiles": "Cn1cc(-n2cnc3c(NCc4nc5cc(Cl)c(Cl)cc5[nH]4)nc(N4CCOCC4)nc32)cn1", "values": [
      {"measurement": "% of inhibition", "setting": "[14]", "value": 83.4, "unit": "%"},
      {"measurement": "% of inhibition", "setting": "[15]", "value": 52.8, "unit": "%"}
    ]},
    {"smiles": "C=CC(=O)Nc1cccc(C(=O)Nc2ccc(Nc3cc(-c4[nH]c(SC)nc4C)ccn3)cc2)c1", "values": [
      {"measurement": "% of control", "setting": "[16]; at 1 µM", "value": 98, "unit": "%"},
      {"measurement": "% of control", "setting": "[16]; at 5 µM", "value": 79, "unit": "%"},
      {"measurement": "% of control", "setting": "[17]; at 1 µM", "value": 91, "unit": "%"},
      {"measurement": "% of control", "setting": "[17]; at 5 µM", "value": 74, "unit": "%"}
    ]}
  ]
}
